What was measured:
[1] = target: AM2-S31N mutant of the A/M2 proteins (Influenza A virus, UniProt P0DOF5, S31N); assay type: biochemical; conditions: pH 5.5
A/WSN/33 (H1N1) virus = assay type: cell-based, influenza A virus

CC(C)[Si](c1ccc(CNC23CC4CC(CC(O)(C4)C2)C3)cc1)(C(C)C)C(C)C [Compound 5f]
% AM2-S31N inhibition [1]: inactive | A/WSN/33 EC50 (A/WSN/33 (H1N1) virus): inactive

From publication PMC5505654 (European journal of medicinal chemistry, 2017)
